Assay results as given in US20130095151A1, “BROAD SPECTRUM SUNSCREEN COMPOSITION COMPRISING 2 HYDROXY SULFOBETAINE OF CINNAMIDOALKYL AMINE” (GALAXY SURFACTANTS LTD., priority 2010, published 2013).

Tests used:
[1] = free acid, not neutralised; cited from earlier work
[2] = photostability: remaining content of AVB after exposing the formulas to sunlight, UV spectrophotometer vs unexposed control; assay type: physicochemical; conditions: in sunscreen creams with AVB/OCN
Experimental: Furthermore, the formulas I to 4 above where tested for photostability by exposing the formulas to sunlight for three hours (10 am to 1 pm, 2 Jun. 2011, Navi Mumbai, INDIA). The remaining content of AVB was measured using UV Spectrophotometer and compared to unexposed control.

Row | photostability compared to PBSA and OMC [2] | SMILES | solubility in water [1]
1 |  | O=S(=O)(O)c1ccc2[nH]c(-c3ccccc3)nc2c1 [Phenylbenzimidazole Sulfonic Acid] | 0.25 % w/w
2 | enhanced photostability | COc1ccc(/C=C/C(=O)NCCC[N+](C)(C)CC(O)CS(=O)(=O)[O-])cc1 (centres unmarked) [SunBeat, 3-(N-p-Methoxycinnamidopropyl, N,N-Dimethyl Ammonium)-2-Hydroxypropane-1-Sulphonate] | 
